This series deals with IRF5. Conditions: ASO.

Values joined by “and” are separate entries in the source; they are usually repeats but may differ in a detail not shown here. Identical values can stand only once. After the bases stand the sugars from the 5' end (letter, count) and the backbone: PS all phosphorothioate, else s phosphorothioate and o phosphodiester by linkage. Methylation of C is not given here. e = 2'-O-(2-methoxyethyl) (MOE); k = constrained ethyl (cEt); d = 2'-deoxy (DNA)

“GTTCTTGGACTCTCAA (sugars kddddddddddkekek, PS)”: for the setting “KARPAS-229, 4 µM”, the target mRNA inhibition amounted to 35%.

Consider “CCAATTTTGCATTCCA (sugars kkkddddddddkekek, PS)”, for which the target mRNA inhibition (KARPAS-229, 4 µM) came to 42%. Consider ACTGTATTACCTATAC (sugars k3 d10 k3, PS), for which the target mRNA inhibition (KARPAS-229, 4 µM) came to 22%.

The sequence “TGAGTCTCAAACCAGG (sugars kkdddddddddkdkdk, PS)” yielded a target mRNA inhibition (KARPAS-229, 4 µM) of 0%. Still for that read-out and setting: next, “GGTTCTTGGACTCTCA (sugars kkdddddddddkdkdk, PS)”: 29%. On the same count and under the same terms, then GGTCTGGCCCTTTTGG (sugars k3 d10 k3, PS), with 16%; and “AGGAGTGAGACGAGCA (sugars kkddddddddkekekk, PS)”, with 35%; and AGACTTTTTGCTCTAA (sugars k3 d10 k3, PS), with 0%. On to “AGTCATGGGCTGAGGC (sugars kddddddddddkekek, PS)”, for which the target mRNA inhibition (KARPAS-229, 4 µM) stood at 25%.

Sequence “AGCTTGGTCTTGACCT (sugars kddddddddddkekek, PS)” came in with a target mRNA inhibition (KARPAS-229, 4 µM) of 0%. The same measure, in the same setting: next, TTAAGGGCACAGCGCA (sugars k3 d10 k3, PS): 0%; “GGTTCTTGGACTCTCA (sugars kkddddddddkekekk, PS)”: 0%; AAGGGCACAGCGCAGG (sugars k3 d10 k3, PS): 48% and 42%. Same read-out and setting: next, “CCTTCTGCAGGGAGTC (sugars kddddddddddkekek, PS)”: 0%; “GCTTGGTCTTGACCTC (sugars k3 d9 k3 e1, PS)”: 29%. On the same count and under the same terms, next, “ATTTCTGCTCCAGGTT (sugars kddddddddddkekek, PS)”: 39%. For “GTCTGGCCCTTTTGGA (sugars kkkddddddddkekek, PS)”, the target mRNA inhibition (KARPAS-229, 4 µM) was 0%. On the same count and under the same terms, next, “CTTCTGCAGGGAGTCA (sugars kkddddddddddkeke, PS)”: 8%. Still for that read-out and setting: next, “TATCTCCGTCCTGGCT (sugars kddddddddddkekek, PS)”: 0%; “GTTCTTGGACTCTCAA (sugars k3 d9 k3 e1, PS)”: 37%. On the same count and under the same terms, next, “AGGAAGTGAGTCTCAA (sugars kddddddddddkekek, PS)”: 11%. For the sequence GGTTCTTGGACTCTCA (sugars k2 d11 k3, PS), the target mRNA inhibition (KARPAS-229, 4 µM) is 47%. With ACGAGTTATGGGAAGG (sugars k3 d10 k3, PS), the target mRNA inhibition is 50% (KARPAS-229, 0.44444 µM); 54% (KARPAS-229, 1.33333 µM); 74% and 73% (KARPAS-229, 4 µM); 81% (KARPAS-229, 12 µM).

Under “KARPAS-229, 4 µM”, “GCTTGGTCTTGACCTC (sugars kkkddddddddkekek, PS)” came in with a target mRNA inhibition of 0%. Same read-out and setting: then “ACCATTCTATGCCTTT (sugars kkkdddddddddkeke, PS)”, with 49%; and “TTATTTCTGCTCCAGG (sugars kkkddddddddkekek, PS)”, with 23%; and GTAATAGGAGTGAGAC (sugars k3 d10 k3, PS), with 11%. As to “TATTTCTGCTCCAGGT (sugars k3 d9 k3 e1, PS)”, the target mRNA inhibition runs as follows: (KARPAS-229, 0.44444 µM) 46%; (KARPAS-229, 1.33333 µM) 52%; (KARPAS-229, 4 µM) 45% and 67%; (KARPAS-229, 12 µM) 74%. The sequence “GGTCTGGCCCTTTTGG (sugars kkkddddddddkekek, PS)” had a target mRNA inhibition (KARPAS-229, 4 µM) of 2%.

Sequence “TTATTTCTGCTCCAGG (sugars kkddddddddddkeke, PS)” showed a target mRNA inhibition (KARPAS-229, 4 µM) of 26%. With “CTTGGTCTTGACCTCC (sugars kekdddddddddeekk, PS)”, the target mRNA inhibition (KARPAS-229, 4 µM) turned out to be 36%.

The sequence “TTGTCTAGTGTCATGG (sugars kekdddddddddeekk, PS)” returned a target mRNA inhibition (KARPAS-229, 4 µM) of 55%. Take GCCTTCTGCAGGGAGT (sugars k3 d10 k3, PS): where the note is “KARPAS-229, 4 µM”, the target mRNA inhibition is 0%. On to CTGATATGATACCTAA (sugars k3 d10 k3, PS), for which the target mRNA inhibition is, setting by setting: (A-431, 0.00412 µM) 13%; (A-431, 0.01225 µM) 29%; (A-431, 0.03704 µM) 54%; (A-431, 0.11111 µM) 80%; (A-431, 0.33333 µM) 88%; (A-431, 1 µM) 90%. The target mRNA inhibition is 42% (KARPAS-229, 0.44444 µM); 45% (KARPAS-229, 1.33333 µM); 59% and 76% (KARPAS-229, 4 µM); 77% (KARPAS-229, 12 µM). “ATCACCACTGTGTACC (sugars kkkddddddddkdkdk, PS)” showed a target mRNA inhibition (KARPAS-229, 4 µM) of 0%. As for “GGTTCTTGGACTCTCA (sugars k3 d9 k3 e1, PS)”, under “KARPAS-229, 4 µM”, the target mRNA inhibition is 0%.

Under “KARPAS-229, 4 µM”, “CCAATGCAACATCCAT (sugars k2 d8 e4 k2, PS)” registered a target mRNA inhibition of 0%. Still for that read-out and setting: then “TGCACTGACACAGGCG (sugars kkddddddddkekekk, PS)”, with 0%; and “CGGTCTTTGAGGTCTG (sugars kekdddddddddeekk, PS)”, with 49%.

In turn, “AAGGGCACAGACGCAGG (sugars kdddddddddkekeked, PS)” yielded a target mRNA inhibition (KARPAS-229, 4 µM) of 0%. The same measure, in the same setting: then “CCAATGCAACATCCAT (sugars kkddddddddkekekk, PS)”, with 0%; and “GCTTGGTCTTGACCTC (sugars kkdddddddddkdkdk, PS)”, with 11%; and “TTATTTCTGCTCCAGG (sugars k3 d9 k3 e1, PS)”, with 28%. The sequence “GCATTCCATATACACA (sugars kkkdddddddddkeke, PS)” yielded a target mRNA inhibition (KARPAS-229, 4 µM) of 45%. The same measure, in the same setting: then GAGTGAGACGAGCAAA (sugars k3 d10 k3, PS), with 27%. Same read-out and setting: then “CTGTCACATCTCCACA (sugars k3 d9 k3 e1, PS)”, with 28%; and “GTTGAATTTTGTGACT (sugars k3 d9 k3 d1, PS)”, with 0%.

On to “GAAGTGAGTCTCAAAC (sugars kdddddddddkekeke, PS)”, for which the target mRNA inhibition (KARPAS-229, 4 µM) was found to be 11%. Still for that read-out and setting: then “ATCACCACTGTGTACC (sugars kkkdddddddddkeke, PS)”, with 0%. In the case of “GTCTTGACCTCCCGCT (sugars kkddddddddddkeke, PS)”, the target mRNA inhibition runs as follows: (KARPAS-229, 0.44444 µM) 38%; (KARPAS-229, 1.33333 µM) 47%; (KARPAS-229, 4 µM) 65% and 69%; (KARPAS-229, 12 µM) 78%. Take “GTCTAGTGTCATGGAA (sugars kddddddddddkekek, PS)”: the target mRNA inhibition (KARPAS-229, 4 µM) was 42%. The same measure, in the same setting: then “CTTCTGCAGGGAGTCA (sugars kkdddddddddkekek, PS)”, with 0%.

Turning to GTGTCATGGAATTTTG (sugars k3 d10 k3, PS), under “KARPAS-229, 4 µM”, the target mRNA inhibition was 58%. The same measure, in the same setting: then “CACTGACACAGGCGGA (sugars kdddddddddkekeke, PS)”, with 0%. As to ATAGGAGTGAGACGAG (sugars k3 d10 k3, PS), under “KARPAS-229, 4 µM”, the target mRNA inhibition is 16%.

In turn, CCATTCTATGCCTTTT (sugars k3 d10 k3, PS) returned a target mRNA inhibition (KARPAS-229, 4 µM) of 43%. As for ACCACTGTGTACCCCA (sugars k3 d10 k3, PS), the target mRNA inhibition is, setting by setting: (KARPAS-229, 0.44444 µM) 16%; (KARPAS-229, 1.33333 µM) 41%; (KARPAS-229, 4 µM) 75% and 57%; (KARPAS-229, 12 µM) 65%. Turning to “ACCACTGTGTACCCCA (sugars kekdddddddddeekk, PS)”, the target mRNA inhibition by setting is: (KARPAS-229, 0.44444 µM) 28%; (KARPAS-229, 1.33333 µM) 45%; (KARPAS-229, 4 µM) 63% and 62%; (KARPAS-229, 12 µM) 77%.

For the sequence “CCTTCTGCAGGGAGTC (sugars kekdddddddddeekk, PS)”, under “KARPAS-229, 4 µM”, the target mRNA inhibition is 14%. Same read-out and setting: then “TTGTCTAGTGTCATGG (sugars kkddddddddddkeke, PS)”, with 38%.

For the sequence TCAGCTTTCTTGTCTA (sugars k3 d10 k3, PS), the target mRNA inhibition (KARPAS-229, 4 µM) was 15%. Same read-out and setting: next, “GCATTCCATATACACA (sugars k3 d9 k3 e1, PS)”: 25%; “CACTGACACAGGCGGA (sugars k3 d9 k3 e1, PS)”: 0%.

“ACCACTGTGTACCCCA (sugars kkkdddddddddkeke, PS)” displayed a target mRNA inhibition (KARPAS-229, 4 µM) of 39%. The same measure, in the same setting: next, “CATTCCATATACACAC (sugars kekdddddddddeekk, PS)”: 24%. For the sequence “GGTTCTTGGACTCTCA (sugars kekdddddddddeekk, PS)”, the target mRNA inhibition runs as follows: (KARPAS-229, 0.44444 µM) 31%; (KARPAS-229, 1.33333 µM) 44%; (KARPAS-229, 4 µM) 60% and 66%; (KARPAS-229, 12 µM) 81%. On to AGGAAGTGAGTCTCAA (sugars k3 d10 k3, PS), for which the target mRNA inhibition (KARPAS-229, 4 µM) came out at 42%.

Sequence “TGAGTCATGGGCTGAG (sugars kkdddddddddkekek, PS)” had a target mRNA inhibition (KARPAS-229, 4 µM) of 0%.

Under “KARPAS-229, 4 µM”, “ATCACCACTGTGTACC (sugars kekdddddddddeekk, PS)” registered a target mRNA inhibition of 0%. As to GGTTCTTGGACTCTCA (sugars k3 d10 k3, PS), the target mRNA inhibition reads like this: (KARPAS-229, 0.44444 µM) 52% and 54%; (KARPAS-229, 1.33333 µM) 65% and 72%; (KARPAS-229, 12 µM) 86% and 82%. “TTGTCTAGTGTCATGG (sugars kkkddddddddkdkdk, PS)” yielded a target mRNA inhibition (KARPAS-229, 4 µM) of 36%. Same read-out and setting: then “CTGTCACATCTCCACA (sugars kkdddddddddkekek, PS)”, with 23%; and “TGCACTGACACAGGCG (sugars k2 d8 e4 k2, PS)”, with 0%. On the same count and under the same terms, next, “GCTGTCACATCTCCAC (sugars k3 d9 k3 e1, PS)”: 23%; “TTCTGCAGGGAGTCAG (sugars kdddddddddkekeke, PS)”: 0%; “TATTTCTGCTCCAGGT (sugars kkdddddddddkekek, PS)”: 5%.

For the setting “KARPAS-229, 4 µM”, AATGCAACATCCATCA (sugars k3 d10 k3, PS) had a target mRNA inhibition of 0%. For the sequence “CGGTCTTTGAGGTCTG (sugars kkdddddddddkekek, PS)”, the target mRNA inhibition (KARPAS-229, 4 µM) stood at 44%.

Values taken from the OligoGym collection.
